The NIST ThermoML archive (doi:10.1021/je030101n)
Numbers after ± are expanded uncertainties.

Columns and labels:
[1] = 101.3 kPa, Liquid; for viscosity: Capillary tube (Ostwald / Ubbelohde) method; for mass density: Pycnometric method
[2] = xn = mol fraction of the nth substance listed; conditions: 101.3 kPa, Liquid, x1 = 1; for viscosity: Capillary tube (Ostwald / Ubbelohde) method; for mass density: Pycnometric method

For `Nc1ccccc1` [aniline], the viscosity ([1]; 298.15 K) was 3.69 ± 0.028 mPa·s, the mass density ([1]; 298.15 K) was 1017.2 ± 0.6 kg/m3 and the viscosity ([1]; 303.15 K) was 3.19 ± 0.024 mPa·s. It also gave a mass density ([1]; 303.15 K) of 1012.9 ± 0.6 kg/m3, a viscosity ([1]; 308.15 K) of 2.8 ± 0.021 mPa·s and a mass density ([1]; 308.15 K) of 1008.6 ± 0.6 kg/m3. For the same compound, the viscosity ([1]; 313.15 K) was 2.42 ± 0.018 mPa·s and the mass density ([1]; 313.15 K) was 1004.2 ± 0.6 kg/m3.
`N#Cc1ccccc1` [benzonitrile] showed a viscosity ([1]; 298.15 K) of 1.171 ± 0.009 mPa·s, a mass density ([1]; 298.15 K) of 1000.9 ± 0.6 kg/m3 and a viscosity ([1]; 303.15 K) of 1.126 ± 0.009 mPa·s. For the same compound, the mass density ([1]; 303.15 K) was 996.4 ± 0.6 kg/m3, the viscosity ([1]; 308.15 K) was 1.068 ± 0.009 mPa·s and the mass density ([1]; 308.15 K) was 991.9 ± 0.6 kg/m3. The viscosity ([1]; 313.15 K) was 1.001 ± 0.008 mPa·s and the mass density ([1]; 313.15 K) was 987.2 ± 0.6 kg/m3.
Compound `CN(C)C=O` [dimethylformamide] has a viscosity ([1]; 298.15 K) of 0.803 ± 0.006 mPa·s, a mass density ([1]; 298.15 K) of 944.5 ± 0.3 kg/m3 and a viscosity ([1]; 303.15 K) of 0.756 ± 0.005 mPa·s. The mass density ([1]; 303.15 K) was 939.8 ± 0.3 kg/m3, the viscosity ([1]; 308.15 K) was 0.71 ± 0.005 mPa·s and the mass density ([1]; 308.15 K) was 935.1 ± 0.3 kg/m3. It also gave a viscosity ([1]; 313.15 K) of 0.673 ± 0.005 mPa·s and a mass density ([1]; 313.15 K) of 930.2 ± 0.3 kg/m3.
`CN(C)C=O` [dimethylformamide] + N#Cc1ccccc1 showed a viscosity ([2]; 298.15 K) of 0.803 ± 0.006 mPa·s, a mass density ([2]; 298.15 K) of 944.5 ± 0.3 kg/m3 and a viscosity ([2]; 303.15 K) of 0.756 ± 0.005 mPa·s. For the same compound, the mass density ([2]; 303.15 K) was 939.8 ± 0.3 kg/m3, the viscosity ([2]; 308.15 K) was 0.71 ± 0.005 mPa·s and the mass density ([2]; 308.15 K) was 935.1 ± 0.3 kg/m3. It also gave a viscosity ([2]; 313.15 K) of 0.673 ± 0.005 mPa·s and a mass density ([2]; 313.15 K) of 930.2 ± 0.3 kg/m3.
`CN(C)C=O` [dimethylformamide] + Nc1ccccc1 gave a viscosity ([2]; 298.15 K) of 0.803 ± 0.006 mPa·s, a mass density ([2]; 298.15 K) of 944.5 ± 0.3 kg/m3 and a viscosity ([2]; 303.15 K) of 0.756 ± 0.005 mPa·s. For the same compound, the mass density ([2]; 303.15 K) was 939.8 ± 0.3 kg/m3, the viscosity ([2]; 308.15 K) was 0.71 ± 0.005 mPa·s and the mass density ([2]; 308.15 K) was 935.1 ± 0.3 kg/m3. It also gave a viscosity ([2]; 313.15 K) of 0.673 ± 0.005 mPa·s and a mass density ([2]; 313.15 K) of 930.2 ± 0.3 kg/m3.
